Test results: US20260022142A1, “MACROCYCLIC IMMUNOMODULATORS” (Bristol-Myers Squibb Company, priority 2022, published 2026)
Numbered stars: 1 amine (or outer) side, 2 acyl side, 3 side chain; on linkers, the order of the positions; unused ones are H or OH. Bridge positions count the residues as written; N and C are the ends. Square brackets hold non-standard residues; d marks the D form. Peptide text beside a SMILES is read from it. * marks the point of attachment. ξ: configuration not given here. Phe(3-CF3) = N[C@@H](Cc1cccc(C(F)(F)F)c1)C(=O)O; Phe(4-COOH) = N[C@@H](Cc1ccc(C(=O)O)cc1)C(=O)O; Bip = N[C@@H](Cc1ccc(-c2ccccc2)cc1)C(=O)O; NH(CH2)14COOH = O=C(O)CCCCCCCCCCCCCCN*; Phe(3-Me) = Cc1cccc(C[C@H](N)C(=O)O)c1; γGlu = O=C(O)[C@H](CCC(=O)[*:2])N[*:1]; NH(CH2)12COOH = O=C(O)CCCCCCCCCCCCN*; Val(3-OH) = CC(C)(O)[C@H](N)C(=O)O; Cha = N[C@@H](CC1CCCCC1)C(=O)O; Cit = NC(=O)NCCC[C@H](N)C(=O)O; Thr(3ξ) = CC(O)[C@H](N)C(=O)O; Carboxymethyl = O=C(O)C*; Orn = NCCC[C@H](N)C(=O)O; Aun = NCCCCCCCCCCC(=O)O; Dab = NCC[C@H](N)C(=O)O; Dap = NC[C@H](N)C(=O)O; AEEA = NCCOCCOCC(=O)O

target: T1, PD-1/PD-L1 interaction (PE-labeled human PD-L1-Ig binding to Jurkat cell line over-expressing human PD-1) (Homo sapiens, UniProt Q15116); test: Jurkat-PD-1 Cell Binding High-Content Screening Assay (CBA); assay type: cell-based; conditions: Jurkat cell line over-expressing human PD-1; PE-labeled PD-L1-Ig 20 nM final; read-out: Jurkat hPD1-PDL1 IC50
T1 construct: expressed in transfected cells; host or cells: Jurkat
T1 sequence (Q15116 25-288): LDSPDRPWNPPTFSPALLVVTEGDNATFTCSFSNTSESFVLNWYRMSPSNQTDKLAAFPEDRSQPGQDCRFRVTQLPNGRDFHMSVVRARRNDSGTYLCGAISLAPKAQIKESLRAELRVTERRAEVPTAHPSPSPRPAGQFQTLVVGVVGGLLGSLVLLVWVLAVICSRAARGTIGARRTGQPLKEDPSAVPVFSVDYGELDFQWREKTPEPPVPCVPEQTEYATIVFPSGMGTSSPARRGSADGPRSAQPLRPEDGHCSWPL
Procedure: Example 2: Jurkat-PD-1 Cell Binding High-Content Screening Assay (CBA)
Phycoerythrin (PE) was covalently linked to the Ig epitope tag of human PD-L1-Ig and fluorescently-labeled PD-L1-Ig was used for binding studies with a Jurkat cell line over-expressing human PD-1 (Jurkat-PD-1). Briefly, 8×10^3 Jurkat-hPD-1 cells were seeded into 384 well plates in 20 μl of DMEM supplemented with 10% fetal calf serum. 100 nl of compound was added to cells followed by incubation at 37° C. for 2 h. Then, 5 μl of PE-labeled PD-L1-Ig (20 nM final), diluted in DMEM supplemented with 10% fetal calf serum. After 1 hour incubation, cells were fixed with 4% paraformaldehyde in dPBS containing 10 μg/ml Hoechst 33342 and then washed 3× in 100 μl dPBS. Data was collected and processed using a Cell Insight NXT High Content Imager and associated software.

IC50	Structure (SMILES)
9.9 nM	Cc1cccc(C[C@@H]2NC(=O)[C@H](CC(=O)O)NC(=O)[C@H](Cc3ccc(OCC(=O)O)cc3)NC(=O)[C@H](CCN)NC(=O)CSC[C@@H](C(=O)N[C@@H](CCN)C(=O)NCCOCCOCC(=O)NCCOCCOCC(=O)N[C@@H](CCC(=O)NCC(=O)NCCCCCCCCCCCCC(=O)O)C(=O)O)NC(=O)[C@H](Cc3cnc[nH]3)NC(=O)[C@H](C(C)(C)O)NC(=O)[C@H](CC3CCCCC3)NC(=O)[C@H](CCN)NC(=O)[C@@H](CC(C)C)NC(=O)[C@H](CCCN)NC(=O)[C@H](Cc3ccc(C(=O)O)cc3)NC(=O)[C@H](Cc3ccc(-c4ccccc4)cc3)NC(=O)[C@H](Cc3ccc(C(=O)O)cc3)NC2=O)c1 [Compound 1256] ({CH2CO}-[Dab]Y(Carboxymethyl)D[Phe(3-Me)][Phe(4-COOH)][Bip][Phe(4-COOH)][Orn][dL][Dab][Cha][Val(3-OH)]HC[Dab][AEEA][AEEA][γGlu]G-{NH(CH2)12COOH}; thioether N-14)
9.5 nM	CC(C)C[C@H]1NC(=O)[C@H](CCCN)NC(=O)[C@H](C(C)C)NC(=O)[C@H](Cc2ccc(-c3ccccc3)cc2)NC(=O)[C@H](C(C)C)NC(=O)[C@H](Cc2c[nH]c3ccccc23)NC(=O)[C@H](CC(=O)O)NC(=O)[C@H](Cc2ccc(OCC(=O)O)cc2)NC(=O)[C@H](C(C)O)NC(=O)CSC[C@@H](C(=O)N[C@@H](CC(N)=O)C(=O)NCCOCCOCC(=O)N[C@@H](CCCCN)C(=O)NCCCCCCCCCCC(=O)O)NC(=O)[C@H](C(C)O)NC(=O)[C@H](C(C)C)NC(=O)[C@H](CC2CCCCC2)NC(=O)[C@H](CCN)NC1=O (stereo partly drawn) [Compound 3027] ({CH2CO}-[Thr(3ξ)]Y(Carboxymethyl)DWV[Bip]V[Orn][dL][Dab][Cha]V[Thr(3ξ)]CN[AEEA]K[Aun]-OH; thioether N-14)
4 nM	CC(C)C[C@H]1NC(=O)[C@H](Cc2cnc[nH]2)NC(=O)[C@H](Cc2ccc(OCC(=O)O)cc2)NC(=O)[C@H](Cc2ccc(-c3ccccc3)cc2)NC(=O)[C@H](Cc2ccc(C(=O)O)cc2)NC(=O)[C@H](Cc2cccc(C(F)(F)F)c2)NC(=O)[C@H](CC(=O)O)NC(=O)[C@H](Cc2ccc(OCC(=O)O)cc2)NC(=O)[C@H](C(C)O)NC(=O)CSC[C@@H](C(=O)N[C@@H](CCN)C(=O)NCCCCCCCCCCC(=O)O)NC(=O)[C@H](C(C)O)NC(=O)[C@H](C(C)C)NC(=O)[C@H](CC2CCCCC2)NC(=O)[C@H](CCN)NC1=O (stereo partly drawn) [Compound 3821] ({CH2CO}-[Thr(3ξ)]Y(Carboxymethyl)D[Phe(3-CF3)][Phe(4-COOH)][Bip]Y(Carboxymethyl)H[dL][Dab][Cha]V[Thr(3ξ)]C[Dab][Aun]-OH; thioether N-14)
13.5 nM	Cc1cccc(C[C@@H]2NC(=O)[C@H](CC(=O)O)NC(=O)[C@H](Cc3ccc(OCC(=O)O)cc3)NC(=O)[C@H](CN)NC(=O)CSC[C@@H](C(=O)N[C@@H](CN)C(=O)NCCCCCCCCCCC(=O)O)NC(=O)[C@H]([C@@H](C)O)NC(=O)[C@H](C(C)C)NC(=O)[C@H](CC3CCCCC3)NC(=O)[C@H](CCN)NC(=O)[C@@H](CC(C)C)NC(=O)[C@H](CCCN)NC(=O)[C@H](CCCNC(N)=O)NC(=O)[C@H](Cc3ccc(-c4ccccc4)cc3)NC(=O)[C@H](C(C)C)NC2=O)c1 [Compound 1065] ({CH2CO}-[Dap]Y(Carboxymethyl)D[Phe(3-Me)]V[Bip][Cit][Orn][dL][Dab][Cha]VTC[Dap][Aun]-OH; thioether N-14)
280 nM	Cc1cccc(C[C@@H]2NC(=O)[C@H](CC(=O)O)NC(=O)[C@H](Cc3ccc(OCC(=O)O)cc3)NC(=O)[C@H](CN)NC(=O)CSC[C@@H](C(=O)N[C@@H](CCN)C(=O)NCCCCCCCCCCCCCCC(=O)O)NC(=O)[C@H](CO)NC(=O)[C@H](C(C)(C)O)NC(=O)[C@H](CC3CCCCC3)NC(=O)[C@H](CCN)NC(=O)[C@@H](CC(C)C)NC(=O)[C@H](CCCN)NC(=O)[C@H](Cc3ccc(OCC(=O)O)cc3)NC(=O)[C@H](Cc3ccc(-c4ccccc4)cc3)NC(=O)[C@H](Cc3ccc(OCC(=O)O)cc3)NC2=O)c1 [Compound 2223] ({CH2CO}-[Dap]Y(Carboxymethyl)D[Phe(3-Me)]Y(Carboxymethyl)[Bip]Y(Carboxymethyl)[Orn][dL][Dab][Cha][Val(3-OH)]SC[Dab]-{NH(CH2)14COOH}; thioether N-14)
